≈ marks a conversion by molar mass, not a printed value.
Key:
[1] = system: Staphylococcus aureus FDA 209P JC-1; assay: MIC by agar dilution method, Staphylococcus aureus FDA 209P JC-1; type: cell-based; conditions: FDA209P; Staphylococcus aureus FDA 209P JC-1, agar dilution; read-out: Minimum Inhibitory Concentration
From the text: (§1) The minimum inhibitory concentrations of the SF-2080A substance and SF-2080B substance against various microorganisms as measured by the agar dilution method are shown in Table 4 below.

[2] = system: Staphylococcus aureus Smith; assay: MIC by agar dilution method, Staphylococcus aureus Smith; type: cell-based; conditions: read-out: Minimum Inhibitory Concentration
From the text: as §1

[3] = system: Staphylococcus epidermidis ATCC 14990; assay: MIC by agar dilution method, Staphylococcus epidermidis ATCC 14990; type: cell-based; conditions: ATCC14990; Staphylococcus epidermidis ATCC 14990, agar dilution; read-out: Minimum Inhibitory Concentration
From the text: as §1

[4] = system: Bacillus subtilis ATCC 6633; assay: MIC by agar dilution method, Bacillus subtilis ATCC 6633; type: cell-based; conditions: ATCC6633; Bacillus subtilis ATCC 6633, agar dilution; read-out: Minimum Inhibitory Concentration
From the text: as §1

[5] = system: Escherichia coli NIHJ JC-2; assay: MIC by agar dilution method, Escherichia coli NIHJ JC-2; type: cell-based; conditions: NIHJJC2; Escherichia coli NIHJ JC-2, agar dilution; read-out: Minimum Inhibitory Concentration
From the text: as §1

[6] = system: Escherichia coli K-12 IAM 1264; assay: MIC by agar dilution method, Escherichia coli K-12 IAM 1264; type: cell-based; conditions: IAM1264; Escherichia coli K-12 IAM 1264, agar dilution; read-out: Minimum Inhibitory Concentration
From the text: as §1

Salmonella typhi O-901-W = assay: MIC by agar dilution method, Salmonella typhi O-901-W; type: cell-based; conditions: Salmonella enterica, read-out: Minimum Inhibitory Concentration
[7] = system: Shigella dysenteriae Shigae; assay: microbe, parasite or virus in culture; type: cell-based; conditions: read-out: Minimum Inhibitory Concentration
[8] = system: Klebsiella pneumoniae ATCC 27763; assay: MIC by agar dilution method, Klebsiella pneumoniae ATCC 27763; type: cell-based; conditions: ATCC27763; Klebsiella pneumoniae ATCC 27763, agar dilution; read-out: Minimum Inhibitory Concentration
From the text: as §1

Proteus vulgaris OX-19 = assay: MIC by agar dilution method, Proteus vulgaris OX-19; type: cell-based; conditions: OX19; Proteus vulgaris OX-19, agar dilution; read-out: Minimum Inhibitory Concentration
From the text: as §1

[9] = system: Serratia marcescens No. 1; assay: MIC by agar dilution method, Serratia marcescens No. 1; type: cell-based; conditions: Serratia marcescens No. 1, agar dilution; read-out: Minimum Inhibitory Concentration
From the text: as §1

[10] = system: Pseudomonas aeruginosa IAM 1007; assay: MIC by agar dilution method, Pseudomonas aeruginosa IAM 1007; type: cell-based; conditions: IAM1007; Pseudomonas aeruginosa IAM 1007, agar dilution; read-out: Minimum Inhibitory Concentration
From the text: as §1

[11] = system: Cryptococcus neoformans Cr-1; assay: MIC by agar dilution method, Cryptococcus neoformans Cr-1; type: cell-based; conditions: CR1; Cryptococcus neoformans Cr-1, agar dilution; read-out: Minimum Inhibitory Concentration
From the text: as §1

Trichophyton asteroides [12] = assay: MIC by agar dilution method, Trichophyton asteroides; type: cell-based; conditions: read-out: Minimum Inhibitory Concentration
From the text: as §1

[13] = system: Trichophyton interdigital; assay: MIC by agar dilution method, Trichophyton interdigital; type: cell-based; conditions: read-out: Minimum Inhibitory Concentration
From the text: as §1

Aspergillus fumigatus [14] = assay: MIC by agar dilution method, Aspergillus fumigatus; type: cell-based; conditions: read-out: Minimum Inhibitory Concentration
From the text: as §1

Pyricularia oryzae = assay: microbe, parasite or virus in culture; type: cell-based; conditions: read-out: Minimum Inhibitory Concentration
Diaporthe citri = assay: MIC by agar dilution method, Diaporthe citri; type: cell-based; conditions: read-out: Minimum Inhibitory Concentration
From the text: as §1

various microorganisms = assay: Agar dilution method, various microorganisms (overall statement); type: cell-based; conditions: overall statement in words
From the text: as §1

Candida albicans C-A-24 = assay: MIC by plate dilution method, Candida albicans C-A-24; type: cell-based; conditions: CA24; Candida albicans C-A-24, plate dilution; read-out: minimum growth inhibitory concentration (MIC)
From the text: (§2) The minimum growth inhibitory concentration (MIC) against each test strain according to the plate dilution method is shown below: […]

[15] = system: Cryptococcus neoformans Cr-1; assay: MIC by plate dilution method, Cryptococcus neoformans CR-1; type: cell-based; conditions: CR1; Cryptococcus neoformans CR-1, plate dilution; read-out: minimum growth inhibitory concentration (MIC)
From the text: as §2

Trichophyton asteroides [16] = assay: MIC by plate dilution method, Trichophyton asteroides; type: cell-based; conditions: read-out: minimum growth inhibitory concentration (MIC)
From the text: as §2

[17] = system: Trichophyton interdigitale; assay: MIC by plate dilution method, Trichophyton interdigitale; type: cell-based; conditions: read-out: minimum growth inhibitory concentration (MIC)
From the text: as §2

Aspergillus fumigatus [18] = assay: MIC by plate dilution method, Aspergillus fumigatus; type: cell-based; conditions: read-out: minimum growth inhibitory concentration (MIC)
From the text: as §2

fungi = assay: Plate dilution method, fungi (overall statement); type: cell-based; conditions: overall statement in words
From the text: as §2

[19] = Acute toxicity by intraperitoneal administration in mice; conditions: mouse, in vivo, ip
Solubility = type: physicochemical
Trichophyton asteroides [20] = assay: Infection treatment test of guinea pigs infected by Trichophyton asteroides, observation with the naked eye; type: in vivo, Trichophyton asteroides; guinea pig; conditions: for Effect on flush / Effect on scale / Effect on thickening of the affected skin: guinea pig, 1% solution, topical, once a day for 8 days, naked eye
Description: (§3) An infection treatment test of guinea pigs infected by a strain of Trichophyton asteroides on their backs was carried out using the liquid preparation having formulation as shown in Table 6.
(§4) Hairs were pulled off from a white Hartly guinea pig (4 guinea pigs per group) at 4 areas of the back thereof (2 areas on each side, 4×6 cm) and a Trichophyton asteroides-floating solution (liquid Sabouraud's culture medium; number of living cells: 2×10^7 /ml) was infected with a brush in an amount of 0.5 ml per each area. After 2 days from the infection, 0.25 ml of a 1% solution of SF-2080A substance (see Table 6) was applied at one area on each side, once a day and continuously for 8 days.
(§5) The same procedure as above was carried out, except using a 1% solution of pyrrolnitrin and a 1% solution of clotrimazole. Guinea pigs so treated were compared with those to which no treatment was applied.

Trichophyton asteroides [21] = assay: Infection treatment test of guinea pigs infected by Trichophyton asteroides, infected organism cultivation positive ratio; type: in vivo, Trichophyton asteroides; guinea pig; conditions: for infected organism cultivation positive ratio: after 8 days treatment, 1% solution, guinea pig
Description: as §3, §4, §5
After treatment for 8 days, 3 skin pieces were collected from each affecte area and cultivated on a Sabouraud's agar plate for 7 days to observe the infected organism cultivation positive ratio.

[22] = as compared with pyrrolnitrin and clotrimazole, statement in words

| SMILES | MIC [1] [µg/mL] | MIC [2] [µg/mL] | MIC [3] [µg/mL] | MIC [4] [µg/mL] | MIC [5] [µg/mL] | MIC [6] [µg/mL] | MIC (Salmonella typhi O-901-W) [µg/mL] | MIC [7] [µg/mL] | MIC [8] [µg/mL] | MIC (Proteus vulgaris OX-19) [µg/mL] | MIC [9] [µg/mL] | MIC [10] [µg/mL] | MIC [11] [µg/mL] | MIC (Trichophyton asteroides [12]) [µg/mL] | MIC [13] [µg/mL] | MIC (Aspergillus fumigatus [14]) [µg/mL] | MIC (Pyricularia oryzae) [µg/mL] | infected organism cultivation positive ratio (Trichophyton asteroides [21]; day of cultivation 3) [%] | infected organism cultivation positive ratio (Trichophyton asteroides [21]; day of cultivation 5) [%] | infected organism cultivation positive ratio (Trichophyton asteroides [21]; day of cultivation 7) [%] | also measured |
| --- | --- | --- | --- | --- | --- | --- | --- | --- | --- | --- | --- | --- | --- | --- | --- | --- | --- | --- | --- | --- | --- |
| O=[N+]([O-])c1c[nH]c(Cl)c1Cl [SF-2080A substance] | 1.56 (≈ 8.62 µM) | 3.13 (≈ 17.3 µM) | 3.13 (≈ 17.3 µM) | 1.56 (≈ 8.62 µM) | 6.25 (≈ 34.5 µM) | 6.25 (≈ 34.5 µM) | 6.25 (≈ 34.5 µM) | 3.13 (≈ 17.3 µM) | 6.25 (≈ 34.5 µM) | 6.25 (≈ 34.5 µM) | 6.25 (≈ 34.5 µM) | 6.25 (≈ 34.5 µM) | 25 (≈ 138 µM) | 3.12 (≈ 17.2 µM) | 1.56 (≈ 8.62 µM) | 25 (≈ 138 µM) | 0.8 (≈ 4.42 µM) | 25 | 37 | 37 | MIC (Diaporthe citri): 0.8 µg/mL (≈ 4.42 µM); antibacterial/antimicrobial effectiveness against the strains tested (various microorganisms): generally effective against all strains of bacteria tested; MIC (Candida albicans C-A-24): 100 µg/mL (≈ 553 µM); MIC [15]: 25 µg/mL (≈ 138 µM); MIC (Trichophyton asteroides [16]): 3.12 µg/mL (≈ 17.2 µM); MIC [17]: 1.56 µg/mL (≈ 8.62 µM); MIC (Aspergillus fumigatus [18]): 25 µg/mL (≈ 138 µM); inhibition of growth of fungi (fungi): inhibits the growth of fungi; acute toxicity, survival ([19]; 10 mg/kg): all mice survived; acute toxicity, mortality ([19]; 30 mg/kg): all mice died; Solubility in acetone (Solubility): easily soluble; Solubility in chloroform (Solubility): soluble; Solubility in methanol (Solubility): easily soluble; therapeutic effect, observation with the naked eye (Trichophyton asteroides [20]; [22]): excellent therapeutic effects; treatment effect in thickening of the affected skin, flush, and scale (Trichophyton asteroides [20]; compared with 1% pyrrolnitrin and 1% clotrimazole, statement in words): best treatment effect; therapeutic effect, cultivation positive ratio (Trichophyton asteroides [21]; [22]): excellent therapeutic effects; decrease in the cultivation positive ratio (Trichophyton asteroides [21]; compared with pyrrolnitrin-dosed, clotrimazole-dosed and no treatment groups, in words): evident decrease |
| O=[N+]([O-])c1c(Cc2cc(Cl)cc(Cl)c2O)[nH]c(Cl)c1Cl [SF-2080B substance] | 0.2 (≈ 0.562 µM) | 0.2 (≈ 0.562 µM) | 0.1 (≈ 0.281 µM) | 0.1 (≈ 0.281 µM) | 100 (≈ 281 µM) | 100 (≈ 281 µM) | 50 (≈ 140 µM) | 50 (≈ 140 µM) | > 100 | 0.78 (≈ 2.19 µM) | > 100 | > 100 | > 100 | > 100 | 100 (≈ 281 µM) | > 100 | 3.13 (≈ 8.79 µM) | – | – | – | MIC (Diaporthe citri): 0.4 µg/mL (≈ 1.12 µM); antibacterial/antimicrobial effectiveness against the strains tested (various microorganisms): very effective against a limited number of strains, but it is less active or lacks toward the others; acute toxicity, fraction of mice that survived ([19]; 100 mg/kg): 2/3; Solubility in acetone (Solubility): easily soluble; Solubility in chloroform (Solubility): soluble; Solubility in methanol (Solubility): easily soluble |
| Clc1ccccc1C(c1ccccc1)(c1ccccc1)n1ccnc1 [clotrimazole] | – | – | – | – | – | – | – | – | – | – | – | – | – | – | – | – | – | 75 | 96 | 96 | Effect on flush (Trichophyton asteroides [20]): Ineffective; Effect on scale (Trichophyton asteroides [20]): Effective; Effect on thickening of the affected skin (Trichophyton asteroides [20]): Effective |
| O=[N+]([O-])c1c(Cl)cccc1-c1c[nH]cc1Cl [pyrrolnitrin] | – | – | – | – | – | – | – | – | – | – | – | – | – | – | – | – | – | 62 | 87 | 87 | Effect on flush (Trichophyton asteroides [20]): Ineffective; Effect on scale (Trichophyton asteroides [20]): Ineffective; Effect on thickening of the affected skin (Trichophyton asteroides [20]): Effective |

— US4376778A, “Antibiotic substances and processes for production thereof” (Meiji Seika Kaisha, Ltd., priority 1979, dated 1983)
